Measured values as given in US20130131321A1, “LIGANDS FOR ANTIBODY AND Fc-FUSION PROTEIN PURIFICATION BY AFFINITY CHROMATOGRAPHY” (GRAFFINITY PHARMACEUTICALS GMBH, priority 2010, published 2013).

What was measured:
Tocilizumab = test: Microtiter plate chromatography of resins, Tocilizumab (bound, yield); assay type: binding, humanized
Bevacizumab [1] = target: T1, Bevacizumab (Homo sapiens, UniProt P01857); test: Microtiter plate chromatography of resins, Bevacizumab whole IgG (bound, yield, selectivity); assay type: binding, humanized
T1 construct: fused on or other part: humanised anti-VEGF-A VH domain N-terminal of the gamma-1 constant region (engineered, no UniProt entry)

host cell proteins (HCP) [2] = test: Microtiter plate chromatography of resins, host cell proteins (bound); assay type: binding, CHO; details: estimate predicted on the basis of close analogs L49 and L50
Bevacizumab [3] = target: T1, Bevacizumab; test: Langmuir isotherms by batch adsorption; assay type: binding, humanized; details: Bevacizumab in PBS pH 7.3, 25° C., at least 3 h
Experimental: Experiments were performed with Bevacizumab as antibody. Parameters of Langmuir isotherms for purified antibody were determined by batch adsorption experiments in 96-well microtiter plates. In each well, 10 μl of sorbent slurry (50% v/v) were mixed with 100 μl of protein solution. Initial concentrations varied from 0.05-5 mg ml^−1 in phosphate-buffered saline (0.15 M NaCl, 20 mM phosphate buffer, pH 7.3; PBS). Reactions were agitated vigorously at 25° C. for at least 3 h. Afterwards, antibody concentration in the supernatents were measured by Bradford assay.
Parameters of Langmuir isotherms, i.e. dissociation constants Kd and maximum capacities qm, were determined from the measured concentrations in supernatants. Parameters were estimated by numerical fitting of the model equation derived by Chase (4).

Bevacizumab Fab fragment = test: Microtiter plate chromatography of resins, Bevacizumab Fab fragment (bound); assay type: binding, humanized; details: Bevacizumab Fab fragment
Experimental: (§1) Resins were assessed in packed mode by microtiter plate chromatography. For each column, approximately 30 μl of resin were transferred to a 384-well filter plate and sealed with appropriate top frits.
(§2) Columns were equilibrated with 6.7 column volumes (cv) of phosphate buffered saline (0.15 M NaCl, 20 mM sodium phosphate, pH 7.3; PBS) prior to injection. Either 3.3 cv of whole IgGs dissolved at 0.75 mg ml^−1, Fab or Fc fragments dissolved at 0.25 mg ml^−1 (all three in PBS) or host cell proteins (HCP) were injected onto columns. Antibody fragments of Bevacizumab (Fab and Fc) were prepared by cleavage of whole IgG with papain protease (3) according to the protocol of the manufacturer. […] Volumes transferred were spun through columns at 50 g for 1-2 min. During injection of samples, acceleration was reduced to 10 g and centrifugation time increased to 5-10 min. Effluent fractions were collected in 384-well plates and concentrations of protein analyzed by Bradford assay. Protein masses mi, mft and me (see below) were calculated as the product of fraction volume and measured protein concentration.
(§3) The fraction of ‘bound’ protein was calculated as the difference between the total mass of protein injected mi and the mass of protein detected in the flowthrough mft, divided by the total mass of protein injected.
(§4) the fraction of ‘bound’ protein and the ‘yield’ of protein were calculated for each resin based on data for whole IgG-antibodies. In the case of Bevacizumab fragments and host cell proteins, only the fraction of ‘bound’ protein is given. Selectivity of resins was calculated from data for Bevacizumab Whole IgG and host cell proteins. Due to limited experimental precision, selectivity was truncated beyond values of 10.

host cell proteins (HCP) [4] = test: Microtiter plate chromatography of resins, host cell proteins (bound); assay type: binding, CHO; details: host cell proteins
Palivizumab = test: Microtiter plate chromatography of resins, Palivizumab (bound, yield); assay type: binding, humanized
Bevacizumab Fc fragment = test: Microtiter plate chromatography of resins, Bevacizumab Fc fragment (bound); assay type: binding, humanized; details: Bevacizumab Fc fragment
Experimental: as §1, §2, §3, §4

[5] = test system: human poly-IgG (h-poly-IgG); test: Microtiter plate chromatography of resins, human poly-IgG (bound, yield); assay type: binding
[6] = estimate predicted on the basis of close analogs L49 and L50
[7] = fraction of whole IgG Bevacizumab bound to resin
[8] = mass of whole IgG Bevacizumab eluted / mass injected

Row | SMILES | Tocilizumab Bound (%) (Tocilizumab) | Tocilizumab Yield (%) (Tocilizumab) | Bevacizumab IgG Bound (%) (Bevacizumab [1]; [6]) | Bevacizumab IgG Yield (%) (Bevacizumab [1]; [6]) | HCP Bound (%) (host cell proteins (HCP) [2]) | qm (maximum capacity, Langmuir isotherm) (Bevacizumab [3]) [mg per ml resin] | Kd (Bevacizumab [3]; read-out: Kd (dissociation constant, Langmuir isotherm)) [µM] | Bevacizumab Fab Bound (%) (Bevacizumab Fab fragment) | Bevacizumab IgG Bound (%) (Bevacizumab [1]; [7]) | Bevacizumab IgG Yield (%) (Bevacizumab [1]; [8]) | HCP Bound (%) (host cell proteins (HCP) [4]) | Palivizumab Bound (%) (Palivizumab) | Palivizumab Yield (%) (Palivizumab) | Bevacizumab Fc Bound (%) (Bevacizumab Fc fragment) | h-poly-IgG Bound (%) [5] [%] | h-poly-IgG Yield (%) [5] [%]
1 | COc1ccc(NC(=O)c2cn3ccsc3n2)cc1C(=O)NCCOCC(=O)NCCCC[C@H](NC(=O)COCCNC(=O)c1cc(NC(=O)c2cn3ccsc3n2)ccc1OC)C(=O)NCCCN [Ligand L53, (S)-2,6-Bis{5-[5-(Imidazo[2,1-b]thiazol-6-ylcarboxamido)-2-methoxyphenylcarboxamido]-3-oxapentanoylamido}hexanoic acid (3-amino-1-propyl)amide] | >90 | >90 | >95 | >85 | <20 | – | – | – | – | – | – | – | – | – | – | –
2 | COc1ccc(NC(=O)c2cncc(-c3ccco3)c2)cc1C(=O)NCCCN [Ligand L13, 5-[3-(2-Furyl)pyridin-5-yl]carboxamido-2-methoxybenzoic acid N-(3-aminopropyl)amide] | 91 | 79 | – | – | – | 37 | 411 | 9 | 100 | 94 | 38 | 65 | 58 | 64 | 76 | 75
3 | COc1ccc(NC(=O)c2cncc(C3CC3)c2)cc1C(=O)NCCCN [Ligand L23, 5-(3-Cyclopropylpyridin-5-yl)carboxamido-2-methoxybenzoic acid N-(3-aminopropyl)amide] | 86 | 85 | – | – | – | 33 | – | 12 | 100 | 98 | 32 | 61 | 57 | 67 | 75 | 74
